Patent publication US9890133B2 (priority 2011, dated 2018)
≈ marks a conversion by molar mass, not a printed value.

How the values were obtained:
[1] = in vitro; conditions: human
[2] = test system: Poliovirus 3; experiment: microbe, parasite or virus in culture; assay type: cell-based; conditions: Enterovirus C, read-out: Poliovirus3 EC50

Row | Structure (SMILES) | CC50 [1] [µg/mL] | EC50 [2] [µg/mL] | CC50 ([1]; Picorana CC50) [µg/mL]
1 | CC(C)c1ccc2c(c1)OC1(O)c3cccc(N)c3C(=O)C21NC(=O)c1cncc(F)c1 (stereo not shown) [Example 255, N-(1-Amino-4b-hydroxy-7-isopropyl-10-oxo-9b,10-dihydro-4bH-indeno[1,2-b]benzofuran-9b-yl)-5-fluoronicotinamide] | > 10 | < 0.01 | –
2 | CC(C)c1ccc2c(c1)OC1(O)c3cccc(N)c3C(=O)C21NC(=O)c1cc(C(F)(F)F)ccn1 (stereo not shown) [Example 244, N-(1-Amino-4b-hydroxy-7-isopropyl-10-oxo-9b,10-dihydro-4bH-benzo[d]indeno[1,2-b]furan-9b-yl)-4-(trifluoromethyl)picolinamide] | > 10 | < 0.01 | 15.7 (≈ 32.5 µM)
3 | Cc1ncsc1C(=O)NC12C(=O)c3c(N)cccc3C1(O)Oc1cc(C(C)C)ccc12 (stereo not shown) [Example 206, N-(1-Amino-4b-hydroxy-7-isopropyl-10-oxo-9b,10-dihydro-4bH-indeno[1,2-b]benzofuran-9b-yl)-4-methylthiazole-5-carboxamide] | > 10 | < 0.01 | –
4 | CC(C)c1ccc2c(c1)OC1(O)c3cccc(N)c3C(=O)C21NC(=O)c1cc2ccccc2o1 (stereo not shown) [Example 204, N-(1-Amino-4b-hydroxy-7-isopropyl-10-oxo-9b,10-dihydro-4bH-benzo[d]indeno[1,2-b]furan-9b-yl)benzofurane-2-carboxamide] | > 10 | 0.011 (≈ 0.0242 µM) | > 4.51
5 | CC(C)c1ccc2c(c1)OC1(O)c3cccc(N)c3C(=O)C21NC(=O)c1ccccn1 (stereo not shown) [Example 197, N-(1-Amino-4b-hydroxy-7-isopropyl-10-oxo-9b,10-dihydro-4bH-indeno[1,2-b]benzofuran-9b-yl)picolinamide] | 16 (≈ 38.6 µM) | < 0.01 | 34.5 (≈ 82.9 µM)
6 | Cc1c(C(=O)NC23C(=O)c4c(N)cccc4C2(O)Oc2cc(C(C)C)ccc23)sc2ccccc12 (stereo not shown) [Example 274, N-(1-Amino-4b-hydroxy-7-isopropyl-10-oxo-9b,10-dihydro-4bH-indeno[1,2-b]benzofuran-9b-yl)-3-methylbenzo[b]thiophene-2-carboxamide] | > 10 | 0.036 (≈ 0.0743 µM) | –
7 | Cc1ccc(C(=O)NC23C(=O)c4c(N)cccc4C2(O)Oc2cc(C(C)C)ccc23)cc1 (stereo not shown) [Example 188, N-(1-Amino-4b-hydroxy-7-isopropyl-10-oxo-9b,10-dihydro-4bH-benzo[d]indeno[1,2-b]furan-9b-yl)-4-methylbenzamide] | > 10 | < 0.01 | 8.38 (≈ 19.6 µM)
8 | CC(C)c1ccc2c(c1)OC1(O)c3cccc(N)c3C(=O)C21NC(=O)c1cc2ccccc2s1 (stereo not shown) [Example 235, N-(1-Amino-4b-hydroxy-7-isopropyl-10-oxo-9b,10-dihydro-4bH-benzo[d]indeno[1,2-b]furan-9b-yl)benzo[b]thiophene-2-carboxamide] | 8.88 (≈ 18.9 µM) | < 0.01 | 7.97 (≈ 16.9 µM)
9 | CC(C)c1ccc2c(c1)OC1(O)c3cccc(N)c3C(=O)C21NC(=O)c1cnc2ccccc2n1 (stereo not shown) [Example 275, N-(1-Amino-4b-hydroxy-7-isopropyl-10-oxo-9b,10-dihydro-4bH-indeno[1,2-b]benzofuran-9b-yl)quinoxaline-2-carboxamide] | 4.55 (≈ 9.75 µM) | 0.035 (≈ 0.075 µM) | 4.78 (≈ 10.2 µM)
10 | CC(C)c1ccc2c(c1)OC1(O)c3ccccc3C(=O)C21NC(=O)c1ccc2[nH]cnc2c1 (stereo not shown) [Example 240, N-(4b-hydroxy-7-isopropyl-10-oxo-9b,10-dihydro-4bH-benzo[d]indeno[1,2-b]furan-9b-yl)-1H-benzo[d]imidazole-5-carboxamide] | > 10 | < 0.01 | 8.25 (≈ 18.8 µM)
11 | CC(C)c1ccc2c(c1)OC1(O)c3cccc(N)c3C(=O)C21NC(=O)c1ccncc1 (stereo not shown) [Example 199, N-(1-Amino-4b-hydroxy-7-isopropyl-10-oxo-9b,10-dihydro-4bH-indeno[1,2-b]benzofuran-9b-yl)isonicotinamide] | 43 (≈ 103 µM) | < 0.01 | 48.3 (≈ 116 µM)
12 | CC(C)c1ccc2c(c1)OC1(O)c3cccc(N)c3C(=O)C21NC(=O)c1cc2ccccc2[nH]1 (stereo not shown) [Example 265] | 4.4 (≈ 9.7 µM) | < 0.01 | 4.75 (≈ 10.5 µM)
13 | CC(C)c1ccc2c(c1)OC1(O)c3cccc(N)c3C(=O)C21NC(=O)C(=O)c1cccs1 (stereo not shown) [Example 231, N-(1-Amino4b-hydroxy-7-isopropyl-10-oxo-9b,10-dihydro-4bH-indeno[1,2-b]benzofuran-9b-yl)-2-oxo-2-(thiophen-2-yl)acetamide] | > 10 | < 0.01 | 8.64 (≈ 19.3 µM)
14 | CC(C)c1ccc2c(c1)OC1(O)c3cccc(N)c3C(=O)C21NC(=O)C1CCCO1 (stereo not shown) [Example 174, N-(1-Amino-4b-hydroxy-7-isopropyl-10-oxo-9b,10-dihydro-4bH-benzo[d]indeno[1,2-b]furan-9b-yl)tetrahydrofurane-2-carboxamide] | > 10 | 0.019 (≈ 0.0465 µM) | –
15 | CC(C)c1ccc2c(c1)OC1(O)c3ccccc3C(=O)C21NC(=O)c1ccc2[nH]nnc2c1 (stereo not shown) [Example 221, N-(4b-Hydroxy-7-isopropyl-10-oxo-9b,10-dihydro-4bH-benzo[d]indeno[1,2-b]furan-9b-yl)-1H-benzo[d][1,2,3]triazole-5-carboxamide] | 6.53 (≈ 14.8 µM) | 0.016 (≈ 0.0363 µM) | 14.5 (≈ 32.9 µM)
16 | CC(C)c1ccc2c(c1)OC1(O)c3cccc(N)c3C(=O)C21NC(=O)c1cccc(Cl)c1 (stereo not shown) [Example 190, N-(1-Amino-4b-hydroxy-7-isopropyl-10-oxo-9b,10-dihydro-4bH-indeno[1,2-b]benzofuran-9b-yl)-3-chlorobenzamide] | 5.52 (≈ 12.3 µM) | < 0.01 | > 10
17 | Cc1nc(C(=O)NC23C(=O)c4c(N)cccc4C2(O)Oc2cc(C(C)C)ccc23)c2ccccn12 (stereo not shown) [Example 287, N-(1-Amino-4b-hydroxy-7-isopropyl-10-oxo-9b,10-dihydro-4bH-benzo[d]indeno[1,2-b]furan-9b-yl)-3-methylimidazo[1,5-a]pyridine-1-carboxamide] | > 10 | 0.036 (≈ 0.0768 µM) | 7.01 (≈ 15 µM)
18 | Cc1ccccc1C(=O)NC12C(=O)c3c(N)cccc3C1(O)Oc1cc(C(C)C)ccc12 (stereo not shown) [Example 186, N-(1-Amino-4b-hydroxy-7-isopropyl-10-oxo-9b,10-dihydro-4bH-benzo[d]indeno[1,2-b]furan-9b-yl)-2-methylbenzamide] | > 10 | 0.026 (≈ 0.0607 µM) | 8.31 (≈ 19.4 µM)
19 | Cc1nn(C)c2ncc(C(=O)NC34C(=O)c5c(N)cccc5C3(O)Oc3cc(C(C)C)ccc34)cc12 (stereo not shown) [Example 271, N-(1-Amino-4b-hydroxy-7-isopropyl-10-oxo-9b,10-dihydro-4bH-indeno[1,2-b]benzofuran-9b-yl)-1,3-dimethyl-1H-pyrazolo[3,4-b]pyridine-5-carboxamide] | > 10 | < 0.01 | –
20 | COC(=O)c1ccc(C(=O)NC23C(=O)c4c(N)cccc4C2(O)Oc2cc(C(C)C)ccc23)cc1 (stereo not shown) [Example 189, Methyl-4-(1-amino-4b-hydroxy-7-isopropyl-10-oxo-9b,10-dihydro-4bH-benzo[d]indeno[1,2-b]furan-9b-ylcarbamoyl)benzoate] | > 10 | < 0.01 | 8.56 (≈ 18.1 µM)
21 | CC(C)c1ccc2c(c1)OC1(O)c3cccc(N)c3C(=O)C21NC(=O)C(F)(F)F (stereo not shown) [Example 175, N-(1-Amino-4b-hydroxy-7-isopropyl-10-oxo-9b,10-dihydro-4bH-indeno[1,2-b]benzofuran-9b-yl)-2,2,2-trifluoroacetamide] | > 10 | < 0.01 | > 11
22 | CC(C)c1ccc2c(c1)OC1(O)c3cccc(N)c3C(=O)C21NC(=O)c1cncc(O)c1 (stereo not shown) [Example 256, N-(1-Amino-4b-hydroxy-7-isopropyl-10-oxo-9b,10-dihydro-4bH-indeno[1,2-b]benzofuran-9b-yl)-5-hydroxynicotinamide] | > 10 | < 0.01 | –
23 | CC(C)c1ccc2c(c1)OC1(O)c3cccc(N)c3C(=O)C21NC(=O)/C=C/c1ccc(Cl)c(Cl)c1 (stereo not shown) [Example 180] | > 10 | 0.033 (≈ 0.0648 µM) | 4.32 (≈ 8.48 µM)
24 | Cc1cncc(C(=O)NC23C(=O)c4c(N)cccc4C2(O)Oc2cc(C(C)C)ccc23)c1 (stereo not shown) [Example 259, N-(1-Amino-4b-hydroxy-7-isopropyl-10-oxo-9b,10-dihydro-4bH-indeno[1,2-b]benzofuran-9b-yl)-5-methylnicotinamide] | > 10 | < 0.01 | –
25 | Cc1ccnc2nc(C(=O)NC34C(=O)c5c(N)cccc5C3(O)Oc3cc(C(C)C)ccc34)nn12 (stereo not shown) [Example 281, N-(1-Amino-4b-hydroxy-7-isopropyl-10-oxo-9b,10-dihydro-4bH-indeno[1,2-b]benzofuran-9b-yl)-7-methyl-[1,2,4]triazolo[1,5-a]pyrimidine-2-carboxamide] | > 10 | 0.025 (≈ 0.0531 µM) | –
26 | COC(=O)OC12Oc3cc(C(C)C)ccc3C1(NC(C)=O)C(=O)c1c(N)cccc12 (stereo not shown) [Example 113, 9b-acetamido-1-amino-7-isopropyl-10-oxo-9b,10-dihydro-4bH-indeno[1,2-b]benzofuran-4b-yl methyl carbonate] | 48.8 (≈ 119 µM) | < 0.01 | 45.5 (≈ 111 µM)
27 | CC(C)c1ccc2c(c1)OC1(O)c3cccc(N)c3C(=O)C21NC(=O)c1cnccc1Cl (stereo not shown) [Example 254, N-(1-Amino-4b-hydroxy-7-isopropyl-10-oxo-9b,10-dihydro-4bH-indeno[1,2-b]benzofuran-9b-yl)-4-chloronicotinamide] | > 10 | – | –
28 | Cc1onc(-c2c(F)cccc2Cl)c1C(=O)NC12C(=O)c3c(N)cccc3C1(O)Oc1cc(C(C)C)ccc12 (stereo not shown) [Example 228, N-(1-Amino-4b-hydroxy-7-isopropyl-10-oxo-9b,10-dihydro-4bH-indeno[1,2-b]benzofuran-9b-yl)-3-(2-chloro-6-fluorophenyl)-5-methylisooxazole-4-carboxamide] | > 10 | – | 24.1 (≈ 43.9 µM)
29 | CO/N=C1/c2ccccc2C2(OC)Oc3cc(C(C)C)ccc3C12O (stereo not shown) [Example 130, 9b-Hydroxy-7-isopropyl-4b-methoxy-4bH-indeno[1,2-b]benzofuran-10(9bH)-one O-methyl oxime] | – | – | > 50
30 | CCCCC(=O)NC12C(=O)c3c(N)cccc3C1(O)Oc1cc(C(C)C)ccc12 (stereo not shown) [Example 78, Pentanoic acid (1-amino-4b-hydroxy-7-isopropyl-10-oxo-4b,10-dihydro-5-oxa-indeno[2,1-a]inden-9b-yl)-amide] | 20.6 (≈ 52.3 µM) | – | 47.7 (≈ 121 µM)
